This assay concerns classical pathway of the complement system. The assay can be described thus: Anti-complement activity, CH50 hemolytic assay in total human serum. The class given is biochemical. Particulars: in solution, sheep erythrocytes. As for the experimental part:
The anti-complement activity of fucans was tested via a CH50 test, a standard hemolytic assay in total human serum. Complement activation in human serum was induced by the introduction of sheep erythrocytes coated with rabbit antibodies and then recognized as foreign elements. […] The amount of released hemoglobin was then determined by an optical density (OD) measurement at about 414 nm. The human serum dilution was adjusted for a known amount of erythrocytes, in order to lyse about 50% of the red blood cells (CH50). In order to check the impact of the fucan on the complement activation in solution, the fucan was added with the sheep erythrocytes. […] Heparin (heparin […] 173 UI/mg, Choay-Sanofi) and fucan […] RED synthesized in the Laboratoire de Recherche sur les Macromolecules (LRM, CNRS UMR 7540, France) were also tested instead of fucan.

One substance from patent US8933290B2, “Mesh implant” (Sofradim Production SAS, priority 2007, dated 2015) can be followed below.

As for heparin [heparin H108], the “IC50 (median inhibition concentration), anti-complement activity” value is listed as “about 30 μg/mL”.
